The source of these data is patent publication US9400281B2, “Method of screening of therapeutic agents for K-Ras mutant driven cancers” (PUSAN NATIONAL UNIVERSITY INDUSTRY-UNIVERSITY COOPERATION …, priority 2008, dated 2016).

Molecules are shown by their SMILES. Where “and” joins values, the source holds several entries; their conditions need not be identical. Equal values may be shown once. Read-outs that look alike come from different tables or passages of the source.

Data set [1] has as its system K-Ras mutant cancer cell lines HCT116. Kind of data set: Western blot of p53 and p21 expression in K-Ras mutant HCT116 cells. In kind it is cell-based. To be noted: for Protein expression ratio of compound to control, p21 / Protein expression ratio of compound to control, p53: HCT116, 10 μM, DMSO control = 1.0; for fold induction at 10 µM: Homo sapiens, HCT-116, HCT116, 10 μM. How it is done: To confirm whether the compounds prepared according to Examples 1 to 5 are effective for inhibiting SNAIL-p53 binding at cell level, the compound was treated into K-Ras mutant cancer cell lines HCT116 and results were analyzed by western blotting.
Oncogenic K-ras suppresses the p53 activity through SNAIL. In the cell line HCT116, SNAIL is always expressed by K-Ras mutation and bound to p53 to suppress normal activity of p53. If the K-Ras mutant cancer cell line HCT116 is treated with a compound for suppressing SNAIL-p53 binding, p53 is normally activated and more expressed, and target genes of p53 are induced.
First, western blotting was performed to detect expression of p53 and p21, which is a target gene of p53. All cell lines used in the present invention were obtained from ATCC, and maintained in 10% FBS-containing RPMI-1640 or DMEM. Protein was extracted with RIPA buffer solution and a membrane loaded with cell lysate through typical SDS-PAGE and gel transfer method was prepared. After blocking with 5% non-fat dry milk, the membrane was subjected into a typical western blot procedure with an antibody corresponding to each gene. Antibodies used herein were obtained from Cell signaling, SantaCruz. p53 activity was confirmed by expression of p21, which is a target gene of p53.
(A western blot detects proteins with antibodies after separation by electrophoresis.)

Data set [2] relates to A549 (K-Ras mutant cancer cell line). The data set is described as follows: Cell death rate by tryphan blue cell counting, A549. Type of data set: cell-based. To be noted: A549 (A546 [sic]). The text has this: (§1) To confirm that the p53 induction of the compounds is related to K-Ras, A549 and HCT116, which are K-Ras mutant cancer cell lines, and MKN45, which is K-Ras wild type cancer cell line, were used.

A further data set relates to MDA-MB 468. The data set is described as follows: Western blot of p21 expression in mutant p53 MDA-MB 468 cells. Type of data set: cell-based, human. To be noted: for Expression ratio of gene to control, p21: DMSO control = 1.0.
For a further data set, the system named is SNAIL-p53 binding. Kind of data set: GST pull down assay of SNAIL-p53 binding (Experimental Example 2). Details: species or system human. To be noted: FIG. 21. As for the experimental part: GST pull down assay is a method for identifying a binding degree of two proteins. GST-fused SNAIL protein and p53 recombinant protein were prepared and treated with the compound 5o or 7a to identify a binding degree of GST-SNAIL protein and p53 protein. […] If MDM2 is over-expressed, proteolysis of p53 is induced to suppress apoptosis occurring through target genes of p53, and an […] of cells is induced. Although MDM2 is a representative control factor of p53, MDM2 is not applied to K-Ras mutant disease or mutant p53 containing disease.
To perform GST pull down assay, three human SNAIL fragments (residues 1-90, 91-112, and 113-264) and p53 fragments (1-93 and 93-292) were expressed in E. coli as GST-fusion protein. Each of the fragments was loaded on to GSH-agarose, washed, and then eluted using a buffer containing 20 mM reduced glutathione. The eluted fractions were purified using an anionexchange chromatography (HitrapQ). The recombinant human p53 protein (residues 94-292) was expressed in E. coli using the vector pET28A which contains a hexa-histidine tag at the C terminus. The p53 protein including the hexa-histidine tag was purified using Ni-NTA affinity and a size exclusion chromatography (Superdex 200). To confirm the direct binding between p53 and SNAIL, agarose-bead conjugated GST or GST-SNAIL was incubated with His-p539 (histidine-p53) in PBS for 45 minutes at 4° C.. After washing with PBS, the precipitated protein was subjected into SDS-PAGE and western blotting.

The test system of data set [3] is MKN45 (K-Ras wild type cancer cell line). Kind of data set: Cell death rate by tryphan blue cell counting, MKN45. Type of data set: cell-based.
Excerpt: as §1

Data set [4] has as its system HCT116 (K-Ras mutant cancer cell line). Kind of data set: Cell death rate by tryphan blue cell counting, HCT116. Type of data set: cell-based.
The mark [5] stands for this setting: DMSO control = 1.0, read-out: Protein expression ratio of compound to control, p21.
The mark [6] stands for this setting: DMSO control = 1.0, read-out: Protein expression ratio of compound to control, p53.

On to `COc1ccc(OC)c2c1C(=O)C=C([S+]([O-])CCCCCCCCCCC(=O)OCC(C)C)C2=O` (centres unmarked) [Compound 8, isobutyl 11-(5,8-dimethoxyl-1,4-dioxo-1,4-dihydronaphthalene-2-ylsulfinyl) undecanoate], for which, in data set [1], the “Protein expression ratio of compound to control, p21” value came out at 1.7 and the “Protein expression ratio of compound to control, p53” value was determined as 2.3.
`COc1ccc(C2=N[C@@H](c3ccc(Cl)cc3)[C@@H](c3ccc(Cl)cc3)N2C(=O)N2CCNC(=O)C2)c(OC(C)C)c1` [Nutlin-3, reference compound]: the “Cancer cell death rate of compounds with respect to control” value (“Cancer cell death rate of compounds” below) is 11 ± 4.0% in data set [2] (5 μM); 19% and 19 ± 4.5% in data set [2] (10 μM); 25 ± 4.7% in data set [2] (20 μM); 28 ± 2.2% in data set [3] (5 μM); 38% and 38 ± 2.9% in data set [3] (10 μM); 47 ± 2.2% in data set [3] (20 μM). For the same compound, the “Cancer cell death rate of compounds” value in data set [4] (5 μM) is 21 ± 2.4%; in data set [4] (10 μM) it was 32% and 32 ± 2.9%; in data set [4] (20 μM) it was 40 ± 3.1%. In addition, the “Expression ratio of gene to control, p21” value amounted to 0.9 with MDA-MB 468 (MDA-MB 468, 10 μM) and 1.2 in the data set with MDA-MB 468 (MDA-MB 468, 20 μM). In addition, the “Expression of p21 (target gene of p53)” value in the data set on MDA-MB 468 (p53 mutant-type MDA-MB 468, FIG. 23) is “did not affect p21”. Further, the “Binding between GST-SNAIL protein and p53” value with SNAIL-p53 binding was “did not inhibit SNAIL-p53 binding”.
As usually defined, the melting point is the temperature of the solid-liquid transition. With `CCCCCCCCSC1=CC(=O)c2ccccc2C1=O` [Compound 1h, 2-octylthio-1,4-naphthoquinone], the melting point lay within 114 to 115 °C.
Turning to `CCCCCCCCNC1=CC(=O)c2c(OC)ccc(OC)c2C1=O` [Compound 5h, 2-octylamino-5,8-dimethoxy-1,4-naphthoquinone], the melting point is 81 to 82 °C.
On the same count and under the same terms, with `CCCCCCCCCSC1=CC(=O)c2ccccc2C1=O` [Compound 1i, 2-nonylthio-1,4-naphthoquinone] the figure was 105 to 106 °C.
In turn, `CCCCCCCNC1=CC(=O)c2c(OC)ccc(OC)c2C1=O` [Compound 5g, 2-heptylamino-5,8-dimethoxy-1,4-naphthoquinone] had a melting point of 74 to 75 °C.
For `COc1ccc(OC)c2c1C(=O)C=C(SCCCCCCO)C2=O` [Compound 5n, 2-(6-hydroxyhexylthio)-5,8-dimethoxy-1,4-naphthoquinone], the fold induction at 10 µM in data set [1] (setting [5]) was 0.2; in data set [1] (setting [6]), 1.1.
Compound `CCCCCNC1=CC(=O)c2c(OC)ccc(OC)c2C1=O` [Compound 5e, 2-pentylamino-5,8-dimethoxy-1,4-naphthoquinone] yielded a melting point of 102 to 103 °C.
Still for that read-out and setting: with `CCCNC1=CC(=O)c2c(OC)ccc(OC)c2C1=O` [Compound 5c, 2-propylamino-5,8-dimethoxy-1,4-naphthoquinone] the figure was 175 to 176 °C.
On the same count and under the same terms, then `CCCCNC1=CC(=O)c2c(OC)ccc(OC)c2C1=O` [Compound 5d, 2-butylamino-5,8-dimethoxy-1,4-naphthoquinone], with 104 to 105 °C.
Regarding `COc1ccc(OC)c2c1C(=O)C=C(SCCCCO)C2=O` [Compound 5m, 2-(4-hydroxybutylthio)-5,8-dimethoxy-1,4-naphthoquinone], the melting point was in the range of 122 to 123 °C. In data set [1] (setting [5]), the fold induction at 10 µM is 0.1. Besides, the fold induction at 10 µM in data set [1] (setting [6]) worked out at 0.8.
For `CCCCCCCSC1=CC(=O)c2ccccc2C1=O` [Compound 1g, 2-heptylthio-1,4-naphthoquinone], the melting point lay in the range of 114 to 115 °C.
For the compound `COc1ccc(OC)c2c1C(=O)C=C(SCCO)C2=O` [Compound 5k, 2-(2-hydroxyethylthio)-5,8-dimethoxy-1,4-naphthoquinone], the melting point is 117 to 118 °C. Moreover, in data set [1] (setting [5]), the fold induction at 10 µM turned out to be 0.2. The fold induction at 10 µM in data set [1] (setting [6]) worked out at 0.3.
On to `COc1ccc(OC)c2c1C(=O)C=C(SCCCCCCCCCCC(=O)OCC(C)C)C2=O` [Compound 7a, isobutyl-11-(5,8-dimethoxy-1,4-dioxo-1,4-dihydronaphthalene-2-ylthio)undecanoate], for which the “Cancer cell death rate of compounds” value in data set [2] (5 μM) is 23 ± 3.4%; in data set [2] (20 μM), 45 ± 2.3%; in data set [3] (5 μM), 1 ± 1.0%; in data set [3] (20 μM), 3 ± 2.4%; in data set [4] (5 μM), 32 ± 2.1%; in data set [4] (20 μM), 57 ± 2.8%. Besides, the fold induction at 10 µM is 7.2 in data set [1] (setting [5]) and 4.2 in data set [1] (setting [6]). The “Binding between GST-SNAIL protein and p53” value with SNAIL-p53 binding is “substantially weak”.
Regarding `COc1ccc(OC)c2c1C(=O)C=C(SCCCO)C2=O` [Compound 5l, 2-(3-hydroxypropylthio)-5,8-dimethoxy-1,4-naphthoquinone], the figures for the fold induction at 10 µM in data set [1] (setting [5]) and in data set [1] (setting [6]) were 0.1 and 0.6, respectively.
As for `CCCCCCSC1=CC(=O)c2ccccc2C1=O` [Compound 1f, 2-hexylthio-1,4-naphthoquinone], the melting point is 101 to 102 °C.
Same read-out and setting: then `CCNC1=CC(=O)c2c(OC)ccc(OC)c2C1=O` [Compound 5b, 2-ethylamino-5,8-dimethoxy-1,4-naphthoquinone], with 172 to 173 °C.
With `CCCCCCCCCNC1=CC(=O)c2c(OC)ccc(OC)c2C1=O` [Compound 5i, 2-nonylamino-5,8-dimethoxy-1,4-naphthoquinone], the fold induction at 10 µM in data set [1] (setting [5]) was 4.6; in data set [1] (setting [6]) it was 1.6.
Consider `COc1ccc(OC)c2c1C(=O)C=C(SCCCCCCCCCCC(=O)NCC(C)C)C2=O` [Compound 7b, 11-(5,8-dimethoxy-1,4-dioxo-1,4-dihydronaphthalene-2-ylthio)-N-isobutyl undecanamide], for which, in data set [1], the “Protein expression ratio of compound to control, p21” value amounted to 7.0 and the “Protein expression ratio of compound to control, p53” value was 4.6.
`CCCCCSC1=CC(=O)c2ccccc2C1=O` [Compound 1e, 2-pentylthio-1,4-naphthoquinone] showed a melting point of 111 to 112 °C.
As to `CCCCCCCCCCNC1=CC(=O)c2c(OC)ccc(OC)c2C1=O` [Compound 5j, 2-decylamino-5,8-dimethoxy-1,4-naphthoquinone], the melting point lay in the range of 86 to 87 °C. In addition, in data set [1] (setting [5]), the fold induction at 10 µM was determined as 5. Also, in data set [1] (setting [6]), the fold induction at 10 µM stood at 1.3.
Compound `COc1ccc(OC)c2c1C(=O)C=C(SCCCCCCCCCCC(=O)O)C2=O` [Compound 5p, 11-(5,8-dimethoxy-1,4-dioxo-naphthalen-2-ylthio)undecanoic acid] displayed a melting point of 146 to 147 °C. The fold induction at 10 µM in data set [1] (setting [5]) was 0.3. In addition, the fold induction at 10 µM in data set [1] (setting [6]) came out at 1.6.
In turn, `CCCCCCCCCCSC1=CC(=O)c2ccccc2C1=O` [Compound 1j, 2-decylthio-1,4-naphthoquinone] had a melting point of 101 to 102 °C.
With `COc1ccc(OC)c2c1C(=O)C=C(SCCC(=O)N1CCN(c3ccccc3)CC1)C2=O` [Compound 6a, 5,8-dimethoxy-2-(3-oxo-3-(4-phenylpiperazin-1-yl)propylthio)naphthalene-1,4-dione], the fold induction at 10 µM in data set [1] (setting [5]) turned out to be 2.8; in data set [1] (setting [6]), 1.9.
In turn, `CCCCCCNC1=CC(=O)c2c(OC)ccc(OC)c2C1=O` [Compound 5f, 2-hexylamino-5,8-dimethoxy-1,4-naphthoquinone] had a melting point of 83 to 84 °C.
